# Assay results from patent publication US12590066B2, “Fused-heterocyclyl-carbonohydrazonoyl dicyanide compounds and use thereof” (KOREA INSTITUTE OF SCIENCE AND TECHNOLOGY, priority 2020, dated 2026).
# How the values were obtained:
# [1] = biological target: T1, CYP2C9 (Homo sapiens, UniProt P11712); experiment: Inhibitory effect on CYP coenzyme activity, human liver microsomes; assay type: in vitro ADME; conditions: 10 μM compound, human liver microsomes 0.25 mg/mL, substrate diclofenac, 15 minutes
# T1 construct: human liver microsomes (0.25 mg/mL); from tissue; host or cells: human liver microsomes
# T1 sequence (P11712 whole entry): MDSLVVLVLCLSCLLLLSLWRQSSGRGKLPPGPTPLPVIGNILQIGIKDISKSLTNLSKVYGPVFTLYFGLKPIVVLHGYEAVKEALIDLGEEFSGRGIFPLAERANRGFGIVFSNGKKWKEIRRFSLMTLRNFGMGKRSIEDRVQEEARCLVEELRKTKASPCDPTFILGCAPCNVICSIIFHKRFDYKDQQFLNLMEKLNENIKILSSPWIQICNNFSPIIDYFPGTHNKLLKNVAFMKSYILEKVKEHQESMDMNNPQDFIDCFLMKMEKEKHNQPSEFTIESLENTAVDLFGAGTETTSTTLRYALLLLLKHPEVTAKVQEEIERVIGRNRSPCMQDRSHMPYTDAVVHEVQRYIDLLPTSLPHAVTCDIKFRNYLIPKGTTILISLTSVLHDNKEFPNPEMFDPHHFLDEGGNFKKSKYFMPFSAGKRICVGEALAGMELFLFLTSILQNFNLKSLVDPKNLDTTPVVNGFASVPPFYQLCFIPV
# Protocol: (§1) The inhibitory effects of the compounds prepared according to Examples 1 to 57 on CYP coenzyme activity were identified. Specifically, human liver microsomes (0.25 mg/mL), a 0.1 M phosphate buffer solution (pH 7.4), a substrate drug cocktail of five types of drug metabolism enzymes (50 μM phenacetin, 10 μM diclofenac, 100 μM S-mephenytoin, 5 μM dextromethorphan, and 2.5 μM midazolam), and the compound at a concentration of 0 μM or 10 μM were mixed and pre-cultured at 37° C. for 5 minutes, and then further cultured at 37° C. for 15 minutes together with an NADPH generation system solution added thereto. Thereafter, the reaction was terminated by adding an acetonitrile solution containing an internal standard material (terfenadine) and centrifuged for 5 minutes (14,000 rpm, 4° C.), and then a supernatant was injected into an LC-MS/MS system for simultaneous analysis of metabolites of the substrate drugs to thereby evaluate the inhibitory effects on drug metabolism.
# (§2) Metabolites of each CYP coenzyme indicator drug generated through the reaction were analyzed using the Shimadzu Nexera XR system and TSQ Vantage (Thermo). In an HPLC column, Kinetex C18 (2.1 mm×100 mm, 2.6 μm, particle size; Phenomenex, USA) was used, and mobile phases were (A) distilled water containing 0.1% formic acid and (B) acetonitrile containing 0.1% formic acid, and a gradient program shown in Table 3 was applied thereto.
# (§3) The generated metabolites were quantified using a multiple reaction monitoring (MRM) quantification mode, and Xcalibur (version 1.6.1) was used for data analysis. In order to express inhibitory effects of the novel compound prepared according to the examples of the present invention on CYP coenzyme activity, CYP coenzyme activities (%) with respect to the control group not treated with the compound are shown in Table 4 below.
# [2] = biological target: T2, CYP3A4 (Homo sapiens, UniProt P08684); experiment: as above; assay type: in vitro ADME; conditions: 10 μM compound, human liver microsomes 0.25 mg/mL, substrate midazolam, 15 minutes
# T2 construct: human liver microsomes (0.25 mg/mL); from tissue; host or cells: human liver microsomes
# T2 sequence (P08684 whole entry): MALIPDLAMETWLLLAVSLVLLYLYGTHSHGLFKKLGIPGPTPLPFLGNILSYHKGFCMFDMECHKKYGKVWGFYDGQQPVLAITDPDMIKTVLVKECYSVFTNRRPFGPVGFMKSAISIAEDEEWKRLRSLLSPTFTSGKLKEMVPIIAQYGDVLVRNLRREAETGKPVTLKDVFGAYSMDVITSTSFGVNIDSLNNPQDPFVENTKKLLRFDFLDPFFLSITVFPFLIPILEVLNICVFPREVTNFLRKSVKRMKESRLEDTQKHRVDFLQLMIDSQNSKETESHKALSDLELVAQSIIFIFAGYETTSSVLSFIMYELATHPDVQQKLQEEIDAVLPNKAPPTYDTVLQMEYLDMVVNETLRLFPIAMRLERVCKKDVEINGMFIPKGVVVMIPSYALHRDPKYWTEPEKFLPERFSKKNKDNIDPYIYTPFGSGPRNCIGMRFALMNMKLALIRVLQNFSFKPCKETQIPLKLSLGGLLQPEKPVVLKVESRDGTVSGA
# Protocol: as §1, §2, §3
# [3] = biological target: T3, CYP1A2 (Homo sapiens, UniProt P05177); experiment: as above; assay type: in vitro ADME; conditions: 10 μM compound, human liver microsomes 0.25 mg/mL, substrate phenacetin, 15 minutes
# T3 construct: human liver microsomes (0.25 mg/mL); from tissue; host or cells: human liver microsomes
# T3 sequence (P05177 1-516): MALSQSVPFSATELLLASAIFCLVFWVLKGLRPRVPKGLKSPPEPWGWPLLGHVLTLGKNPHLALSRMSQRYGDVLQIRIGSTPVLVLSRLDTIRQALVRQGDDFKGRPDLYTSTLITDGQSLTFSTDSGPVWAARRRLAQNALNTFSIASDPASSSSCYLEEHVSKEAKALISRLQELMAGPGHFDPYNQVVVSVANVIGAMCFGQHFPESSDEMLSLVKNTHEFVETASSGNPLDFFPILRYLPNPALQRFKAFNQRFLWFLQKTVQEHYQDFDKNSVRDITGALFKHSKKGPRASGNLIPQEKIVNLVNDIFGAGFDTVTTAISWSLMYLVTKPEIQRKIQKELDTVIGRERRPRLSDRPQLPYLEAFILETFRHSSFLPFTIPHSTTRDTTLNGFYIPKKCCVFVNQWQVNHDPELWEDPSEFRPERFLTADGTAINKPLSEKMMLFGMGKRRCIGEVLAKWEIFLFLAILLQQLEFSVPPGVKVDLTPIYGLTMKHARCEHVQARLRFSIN
# Protocol: as §1, §2, §3
# [4] = biological target: T4, CYP2D6 (Homo sapiens, UniProt P10635); experiment: as above; assay type: in vitro ADME; conditions: 10 μM compound, human liver microsomes 0.25 mg/mL, substrate dextromethorphan, 15 minutes
# T4 construct: human liver microsomes (0.25 mg/mL); from tissue; host or cells: human liver microsomes
# T4 sequence (P10635 whole entry): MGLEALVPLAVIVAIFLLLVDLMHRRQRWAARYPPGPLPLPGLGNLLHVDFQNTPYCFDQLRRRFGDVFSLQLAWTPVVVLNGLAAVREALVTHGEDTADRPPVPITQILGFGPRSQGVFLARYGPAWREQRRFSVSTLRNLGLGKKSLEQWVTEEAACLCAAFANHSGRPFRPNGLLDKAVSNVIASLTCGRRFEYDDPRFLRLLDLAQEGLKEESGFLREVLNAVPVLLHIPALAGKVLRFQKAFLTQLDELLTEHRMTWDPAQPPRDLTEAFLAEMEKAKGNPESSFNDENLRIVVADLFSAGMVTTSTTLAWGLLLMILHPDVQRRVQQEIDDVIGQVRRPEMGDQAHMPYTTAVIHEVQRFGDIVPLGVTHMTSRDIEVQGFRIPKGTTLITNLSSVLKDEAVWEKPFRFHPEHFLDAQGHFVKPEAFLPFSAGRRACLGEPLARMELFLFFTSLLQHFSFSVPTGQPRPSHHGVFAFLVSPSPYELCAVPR
# Protocol: as §1, §2, §3
# [5] = Liver microsome stability; assay type: in vitro ADME; conditions: 1 μM compound, 37° C., 30 minutes, NADPH; for Dog (%) amount of substrate remaining after the reaction: dog liver microsomes 0.25 mg/mL; for Human (%) amount of substrate remaining after the reaction: human liver microsomes 0.25 mg/mL; for Mouse (%) amount of substrate remaining after the reaction: mouse liver microsomes 0.25 mg/mL; for Rat (%) amount of substrate remaining after the reaction: rat liver microsomes 0.25 mg/mL
# Protocol: The stability of liver microsomes due to the compounds prepared according to Examples 1 to 57 was confirmed. Specifically, four types of liver microsomes (human, dog, rat, and mouse, each 0.25 mg/mL), a 0.1 M phosphate buffer solution (pH 7.4), and each of the compounds at a concentration of 1 μM were mixed and pre-cultured at 37° C. for 5 minutes and further cultured at 37° C. for 30 minutes together with an NADPH generation system solution added thereto. Thereafter, the reaction was terminated by adding an acetonitrile solution containing an internal standard material (chloropropamide) and centrifuged for 5 minutes (14,000 rpm, 4° C.), and then a supernatant was injected into an LC-MS/MS system for analysis of substrate drugs to thereby evaluate metabolic stability due to 8 types of compounds.
# The amount of the substrate remaining after the reaction was analyzed using the Shimadzu Nexera XR system and TSQ Vantage (Thermo). In an HPLC column, Kinetex XB-C18 (2.1 mm×100 mm, particle size of 2.6 μm; Phenomenex, USA) was used, and mobile phases were (A) distilled water containing 0.1% formic acid and (B) acetonitrile containing 0.1% formic acid. Analyst software (version 1.6.3) and Xcalibur (version 1.6.1) were used for data analysis.
# [6] = tested on: Tau-BiFC cells; experiment: Cell viability (stained nuclei count) in Tau-BiFC cells; assay type: cell-based; conditions: 10 μM compound, 48 hours; Forskolin-only group = 100% cell viability
# Procedure, shortened: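 Tau-BiFC cells co-treated 48 h with 30 μM forskolin and compounds (1, 3, 10 μM screen; 0.01–30 μM dose-response). BiFC fluorescence normalized to forskolin-only (100% aggregation) minus untreated gives aggregation inhibition and IC50; viability as Hoechst-stained nuclei count relative to forskolin-only.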
SMILES,CYP2C9 coenzyme activity (%) with respect to control group not treated [1] [%],CYP3A4 coenzyme activity (%) with respect to control group not treated [2] [%],CYP1A2 coenzyme activity (%) with respect to control group not treated [3] [%],CYP2D6 coenzyme activity (%) with respect to control group not treated [4] [%],Dog (%) amount of substrate remaining after the reaction [5] [%],Human (%) amount of substrate remaining after the reaction [5] [%],Mouse (%) amount of substrate remaining after the reaction [5] [%],Rat (%) amount of substrate remaining after the reaction [5] [%],Cell viability (% @10 μM) [6] [%]
"Cn1c(=O)n(C)c2c(Cl)cc(NN=C(C#N)C#N)cc21 [Compound 11, (7-chloro-1,3-dimethyl-2-oxo-2,3-dihydro-1H-benzo[d]imidazol-5-yl)carbonohydrazonoyl dicyanide]",45.8,>100,73.7,>100,63.1,96.1,63.9,82.8,142.3
"Cn1c(=O)n(C)c2ncc(NN=C(C#N)C#N)cc21 [Compound 12, (1,3-dimethyl-2-oxo-2,3-dihydro-1H-imidazo[4,5-b]pyridin-6-yl)carbonohydrazonoyl dicyanide]",93.4,>100,99.6,>100,>100,>100,>100,94.9,145.2
"N#CC(C#N)=NNc1ccc2[nH]c(=O)sc2c1 [Compound 13, (2-oxo-2,3-dihydrobenzo[d]thiazol-6-yl)carbonohydrazonoyl dicyanide]",23.3,92.7,79,99.4,>100,>100,>100,>100,115.8
"Cn1c(=O)sc2cc(NN=C(C#N)C#N)ccc21 [Compound 14, (3-methyl-2-oxo-2,3-dihydrobenzo[d]thiazol-6-yl)carbonohydrazonoyl dicyanide]",19.5,91.2,81.6,85.6,73.3,98.3,59.6,87.1,129.1
"N#CC(C#N)=NNc1ccc2[nH]c(=O)oc2c1 [Compound 15, (2-oxo-2,3-dihydrobenzo[d]oxazol-6-yl)carbonohydrazonoyl dicyanide]",59.4,98.3,87.3,>100,97.1,74.2,>100,92.5,127.7
"Cn1c(=O)oc2cc(NN=C(C#N)C#N)ccc21 [Compound 16, (3-methyl-2-oxo-2,3-dihydrobenzo[d]oxazol-6-yl)carbonohydrazonoyl dicyanide]",54.9,99.8,91.5,>100,95.7,98.9,81,89.1,129.8
"Cn1c(=O)[nH]c2cc(NN=C(C#N)C#N)ccc21 [Compound 17, (1-methyl-2-oxo-2,3-dihydro-1H-benzo[d]imidazol-5-yl)carbonohydrazonoyl dicyanide]",81.2,89,32.1,87.1,>100,>100,95.7,>100,94.38
"CC(C)n1c(=O)sc2cc(NN=C(C#N)C#N)ccc21 [Compound 18, (3-isopropyl-2-oxo-2,3-dihydrobenzo[d]thiazol-6-yl)carbonohydrazonoyl dicyanide]",7.5,78.3,81.4,88.1,93.8,85.1,71.3,70.8,110.7
